# Key:
# LDHA [1] = molecular target: T1, LDHA (Homo sapiens, UniProt P00338); experiment: LDHA enzyme inhibition; type: biochemical; conditions: 6g vs 6f
# LDHA [2] = molecular target: T1, LDHA; experiment: Binding to LDHA by SPR; conditions: for SPR τ: residence time on LDHA
# Rat microsomal stability = type: in vitro ADME; conditions: microsomal data
# LDHB = LDHB (Homo sapiens, UniProt P07195); experiment: LDHB enzyme inhibition; type: biochemical
# PAMPA permeability = type: in vitro ADME
# [3] = system: A673 Ewing's Sarcoma line; experiment: Inhibition of proliferation; type: cell-based; conditions: A673 cells
# LDHB, sequence (P07195 whole entry): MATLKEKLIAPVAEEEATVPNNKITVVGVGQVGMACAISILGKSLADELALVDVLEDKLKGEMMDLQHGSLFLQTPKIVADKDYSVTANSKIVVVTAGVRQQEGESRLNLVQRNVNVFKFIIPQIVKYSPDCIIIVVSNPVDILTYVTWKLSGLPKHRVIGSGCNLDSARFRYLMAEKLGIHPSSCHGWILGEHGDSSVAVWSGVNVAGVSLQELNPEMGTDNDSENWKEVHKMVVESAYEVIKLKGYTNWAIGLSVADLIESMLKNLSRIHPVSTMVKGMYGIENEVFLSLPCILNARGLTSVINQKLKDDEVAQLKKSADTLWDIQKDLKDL
fold less potent in LDHA inhibition compared with 6f (LDHA [1]),binding to LDHA by SPR (in words) (LDHA [2]),residence time / dissociation kinetics by SPR (in words) (LDHA [2]),SPR τ (LDHA [2]),metabolic stability (in words) (Rat microsomal stability),IC50 (LDHB) [nM],PAMPA Perm (PAMPA permeability) [×10⁻⁶ cm/s],proliferation IC50 values (in words) [3],Compound
~ 3 fold,,,,,,,,NS(=O)(=O)c1ccc(Cc2cn(-c3nc(C(=O)O)cs3)nc2-c2cccc(OCc3cccnc3)c2)cc1 [6g]
,very tight binding,long residence times,"19,230 s",reasonable,3,5.8,,NS(=O)(=O)c1ccc(Cc2c(-c3ccc(F)c(OC4CC4)c3)nn(-c3nc(C(=O)O)cs3)c2CC2CC2)cc1F [12e]
,very tight binding,long residence times,"13,568 s",quite poor,5,2.9,submicromolar,NS(=O)(=O)c1ccc(Cc2c(-c3ccc(F)c(OCc4cccc(F)c4)c3)nn(-c3nc(C(=O)O)cs3)c2CC2CC2)cc1F [12h]
,very tight binding,long residence times,"100,000 s",,6,12,submicromolar,NS(=O)(=O)c1ccc(Cc2c(-c3ccc(F)c(OCc4ccc(C(F)(F)F)o4)c3)nn(-c3nc(C(=O)O)cs3)c2CC2CC2)cc1F [12j]
,very tight binding,long residence times,"9,708 s",quite poor,19,13,submicromolar,Cc1ccc(Oc2cc(-c3nn(-c4nc(C(=O)O)cs4)c(CC4CC4)c3Cc3ccc(S(N)(=O)=O)c(F)c3)ccc2F)cc1 [12p]
,,faster dissociation kinetics,286 s,,8,1.6,,NS(=O)(=O)c1ccc(Cc2c(-c3cccc(N4CCOCC4)c3)nn(-c3nc(C(=O)O)cs3)c2CC2CC2)cc1F [13a]
,,faster dissociation kinetics,59 s,,1,4.4,,NS(=O)(=O)c1ccc(Cc2c(-c3cccc(Nc4ccccc4)c3)nn(-c3nc(C(=O)O)cs3)c2CC2CC2)cc1 [13h]
,,,,good stability,2,6.4,,NS(=O)(=O)c1ccc(Cc2c(-c3ccc(F)c(NC(=O)c4ccccc4)c3)nn(-c3nc(C(=O)O)cs3)c2CC2CC2)cc1F [13i]
,,,,good stability,4,5.7,,NS(=O)(=O)c1ccc(Cc2c(-c3ccc(F)c(C(=O)N4CCCC4)c3)nn(-c3nc(C(=O)O)cs3)c2CC2CC2)cc1F [14b]
,,,,,2,8.7,,NS(=O)(=O)c1ccc(Cc2c(-c3ccc(F)c(C(=O)NCc4ccccc4)c3)nn(-c3nc(C(=O)O)cs3)c2CC2CC2)cc1F [14d]

Compound,fold less potent in LDHA inhibition compared with 6f (LDHA [1]),binding to LDHA by SPR (in words) (LDHA [2]),residence time / dissociation kinetics by SPR (in words) (LDHA [2]),SPR τ (LDHA [2]),metabolic stability (in words) (Rat microsomal stability),IC50 (LDHB) [nM],PAMPA Perm (PAMPA permeability) [×10⁻⁶ cm/s],proliferation IC50 values (in words) [3]
NS(=O)(=O)c1ccc(Cc2c(-c3ccc(F)c(OCC4CC4(F)F)c3)nn(-c3nc(C(=O)O)cs3)c2CC2CC2)cc1F (centres unmarked) [12b],,very tight binding,long residence times,"21,052 s",reasonable,3,4.9,
NS(=O)(=O)c1ccc(Cc2c(-c3cccc(OCc4ccccc4)c3)nn(-c3nc(C(=O)O)cs3)c2CC2CC2)cc1F [12g],,,,"88,496 s",,5,1.1,submicromolar

# Reference: article PMC8113097 (Bioorganic & medicinal chemistry letters, 2021)
